Measurements: patent US8697630B2, “Method for lowering insulin resistance” (Nestec S.A., priority 2005, dated 2014)

Columns and labels:
[1] = target: T1, protein tyrosine phosphatase-1B (Homo sapiens, UniProt P18031); settings: cited from earlier work
T1 sequence (P18031 1-435): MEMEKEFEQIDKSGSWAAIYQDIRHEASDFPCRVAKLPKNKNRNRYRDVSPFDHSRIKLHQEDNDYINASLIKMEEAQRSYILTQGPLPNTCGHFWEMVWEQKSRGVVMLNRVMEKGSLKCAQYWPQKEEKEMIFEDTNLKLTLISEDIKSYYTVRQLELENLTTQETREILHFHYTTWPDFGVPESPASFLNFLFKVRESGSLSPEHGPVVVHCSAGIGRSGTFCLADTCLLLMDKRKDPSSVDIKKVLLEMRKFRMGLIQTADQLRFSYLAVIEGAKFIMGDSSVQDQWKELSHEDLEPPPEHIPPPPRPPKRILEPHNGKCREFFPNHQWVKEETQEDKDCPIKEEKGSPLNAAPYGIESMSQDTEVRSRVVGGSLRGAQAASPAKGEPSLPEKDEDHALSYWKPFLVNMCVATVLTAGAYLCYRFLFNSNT

[2] = system: STZ-induced diabetic rats; settings: following intravenous insulin tolerance testing; cited from earlier work
Type 2 diabetics = settings: cited from earlier work
Wild Type C57BL/6J mice = test: Study 2/5: increasing 18:2 PUFA, insulin sensitivity; format: in vivo; settings: 18:2 at 2%, 4%, 6% en; WT mice
Description: Studies 2 and 5 were combined (n=18) where we compared TYPE B Leptr (−/−) (Study2) with the Wild Type mouse (Study 5) used in the backcross for Leptr (−/−), i.e., C57BL/6J. Here, we also examined the effects of food restriction on TYPE B (which over eat like TYPE A because neither have leptin receptors) and added the design of increasing 18:2 PUFA (increments at 2%, 4%, 6% en) while assessing the insulin sensitivity response. […] They had lower glucose than TYPE A, better insulin testing, yet became obese and insulin resistant, glucose intolerant, etc. […] This was the second clue (after n 3 FA in Study 1) that the type and mass of fatty acid intake can have a big influence on mouse insulin dynamics.

glucose transporter = target: T2, glucose transporter (Homo sapiens, UniProt P11166); settings: cited from earlier work
T2 construct: various catechins tested on glucose transport from erythrocytes
T2 sequence (P11166 1-492): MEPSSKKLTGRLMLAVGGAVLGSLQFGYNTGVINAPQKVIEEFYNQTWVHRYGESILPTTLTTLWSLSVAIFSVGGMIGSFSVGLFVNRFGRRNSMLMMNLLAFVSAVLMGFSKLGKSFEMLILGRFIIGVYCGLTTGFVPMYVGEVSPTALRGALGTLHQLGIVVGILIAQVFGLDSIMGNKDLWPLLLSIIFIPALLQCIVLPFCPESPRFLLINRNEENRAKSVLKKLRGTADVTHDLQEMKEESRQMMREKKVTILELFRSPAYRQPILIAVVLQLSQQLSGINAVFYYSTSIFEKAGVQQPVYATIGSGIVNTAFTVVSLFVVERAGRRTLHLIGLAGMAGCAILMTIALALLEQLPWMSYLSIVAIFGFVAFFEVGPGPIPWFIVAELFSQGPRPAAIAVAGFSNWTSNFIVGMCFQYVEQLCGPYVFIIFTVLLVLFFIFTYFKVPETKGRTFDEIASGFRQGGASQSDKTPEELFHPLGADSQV

[3] = 1.5 mmole ingested, cited from earlier work
ApoE (−/−) mice = test: Study 14: plasma total cholesterol, retinol, tocopherol; format: in vivo; settings: 0.5 g/kg in 0.08% cholesterol diet vs same diet without statin; 14 weeks
Description: The objective of this study was to investigate the effect of a statin (Mevacor) on cholesterol levels. Each of three groups of ApoE (−/−) mice was fed one of three diets, each diet containing a different cholesterol level (i.e., 0, 0.4, and 0.8 g/kg). A fourth group was fed the diet containing 0.8 g/kg of cholesterol with the further inclusion of 0.5 g/kg of a statin (i.e., Mevacor).

healthy subjects = settings: 50 g; cited from earlier work
diabetic subjects = settings: cited from earlier work; for plasma glucose peak level / time of plasma glucose peak: diabetic subjects; for change in insulin concentration: in vivo
adults = settings: estimated; cited from earlier work
3T3-L1 cells = settings: 240 nmol/L; cited from earlier work
alloxan diabetic rats = settings: after six weeks; extract 100 mg/kg; cited from earlier work
Zucker fa/fa rats = settings: 100 mg/kg for 3-weeks; vs control obese rats; cited from earlier work

methylhydroxychalcone polymer [MHCP]
inhibition of protein tyrosine phosphatase-1B [1]: inhibits

O=C(O)CCCCC1CCSS1 (stereo not shown) [LA, Lipoic acid]
reduction in the area under the glucose curve [2]: 13%
reduction of lactate and pyruvate after oral glucose loading (Type 2 diabetics; 1200 mg LA (oral) for 4-wks): 45%
improvement of insulin sensitivity (Type 2 diabetics; 600, 1200 and 1800 mg/d oral): 17%
oral dose reported to be safe (Type 2 diabetics; given as 3 doses of 600 mg): up to 1800 mg/d

CCCCC/C=C\C/C=C\CCCCCCCC(=O)O [18:2, linoleic acid]
sensitivity to insulin (Wild Type C57BL/6J mice): appeared to increase sensitivity to insulin

O=C(O[C@@H]1Cc2c(O)cc(O)cc2O[C@@H]1c1cc(O)c(O)c(O)c1)c1cc(O)c(O)c(O)c1 [EGCG, epigallocatechin gallate]
increase of affinity for the glucose transporter over EGC (glucose transporter): 2 to 4 orders of magnitude
Peak maximum [3]: 1.3 μmol. 1-1
detection in the urine [3]: not detected
elimination T1/2 ([3]; ten healthy volunteers): 3.9 h

CC[C@H](C)C(=O)O[C@H]1C[C@@H](C)C=C2C=C[C@H](C)[C@H](CC[C@@H]3C[C@@H](O)CC(=O)O3)[C@H]21 [statin]
liver, aortal, and plasma cholesterol levels (ApoE (−/−) mice): significant reduction

OC[C@H]1O[C@@](CO)(O[C@H]2O[C@H](CO)[C@@H](O)[C@H](O)[C@H]2O)[C@@H](O)[C@@H]1O [sucrose]
blood glucose peak (healthy subjects): 143.3 ± 8.8 mg/dL
time of blood glucose peak (healthy subjects): 30 min
plasma glucose peak level (diabetic subjects): 237 ± 12 mg/dL
time of plasma glucose peak (diabetic subjects): ≤ 60 min
change in insulin concentration (diabetic subjects): 59.3 ± 12 µU/mL

OC[C@H]1O[C@H](OC[C@H]2OC(O)(CO)[C@@H](O)[C@@H]2O)[C@H](O)[C@@H](O)[C@@H]1O (stereo partly shown) [isomaltulose]
blood glucose peak (healthy subjects): 110.9 ± 4.9 mg/dL
time of blood glucose peak (healthy subjects): 60 min
plasma glucose peak level (diabetic subjects): 195 ± 14 mg/dL
time of plasma glucose peak (diabetic subjects): 120 min
change in insulin concentration (diabetic subjects): 41.1 ± 7.4 µU/mL
minimum effect dose (mental concentration) (adults): more than 5 g

insulin: insulin
greatest glucose uptake relative to maximum uptake observed with BE (3T3-L1 cells): 2.7 times
decrease in fasting blood glucose (alloxan diabetic rats): -183.1 mg/dL

C[C@@H]([C@H](C)O)[C@H](N)C(=O)O [ID-1101, 4-hydroxyisoleucine]
hyperinsulinemia (Zucker fa/fa rats): reduced hyperinsulinemia
